Experimental data from patent US20060105969A1, “Anthelmintic compositions” (priority 1999, published 2006).
Where two headings read alike, the source gives them in different places.

Test system: L4 Heartworm (D. immitis)
Test: In vitro L4 heartworm (D. immitis) larval motility assay
Assay type: cell-based, Dirofilaria immitis

CO[C@H]1C[C@H](O[C@@H]2/C(C)=C/C[C@@H]3C[C@@H](C[C@]4(CC[C@H](C)[C@@H](C5CCCCC5)O4)O3)OC(=O)[C@@H]3C=C(C)/C(=N/O)[C@H]4OC/C(=C\C=C\[C@@H]2C)[C@]43O)O[C@@H](C)[C@@H]1O [(1), 5-oximino 22,23-dihydro-25-cyclohexylayermectin B1 monosaccharide]
effect in causing mortality or paralysis: only a modest effect | Observation score (larval motility), duplicate observations (1 mcg/ml, 2 h post treatment): 5/5 | Observation score (larval motility), duplicate observations (1 mcg/ml, 4 h post treatment): 5/5 | Observation score (larval motility), duplicate observations (1 mcg/ml, 24 h post treatment): 5/5 | Observation score (larval motility), duplicate observations (1 mcg/ml, 48 h post treatment): 5/5 | Observation score (larval motility), duplicate observations (1 mcg/ml, 72 h post treatment): 5/5 | Observation score (larval motility), duplicate observations (10 mcg/ml, 2 h post treatment): 2/2 | Observation score (larval motility), duplicate observations (10 mcg/ml, 4 h post treatment): 2/0 | Observation score (larval motility), duplicate observations (10 mcg/ml, 24 h post treatment): 3/3 | Observation score (larval motility), duplicate observations (10 mcg/ml, 48 h post treatment): 4/4 | Observation score (larval motility), duplicate observations (10 mcg/ml, 72 h post treatment): 3/4

N#Cc1nn(-c2c(Cl)cc(C(F)(F)F)cc2Cl)c(N)c1[S+]([O-])C(F)(F)F (stereo not shown) [Fipronil, 5-amino-3-cyano-1-(2,6-dichloro-4-trifluorome-thylphenyl)-4-trifluoromethylsulphinylpyrazole]
Observation score (larval motility), duplicate observations: 5/5 | effect in causing mortality or paralysis: no observable effect at all
